Results taken from ChEMBL document CHEMBL1158651, “Centaurepensin: A Cytotoxic Constituent of Centaurea solstitialis and C. repens (Asteraceae)” (1979).
≈ marks a conversion by molar mass, not a printed value.

Assay: Cytotoxicity against human 9KB cells
Assay type: functional
Conditions: read-out: ED50 (the source's name)

C=C1C(=O)O[C@H]2[C@H]1[C@@H](OC(=O)[C@](C)(O)CCl)CC(=C)[C@@H]1C[C@H](O)[C@](O)(CCl)[C@H]21 [CENTAUREPENSIN]
EC50: 1.7 µg/mL (≈ 3.91 µM)
